From PMC9304066, “H2S biogenesis by cystathionine beta-synthase: mechanism of inhibition by aminooxyacetic acid and unexpected role of serine” (Cellular and Molecular Life Sciences: CMLS, 2022)
Values joined by “and” are separate entries in the source; they are usually repeats but may differ in a detail not shown here. Equal values may be shown once.

Tests used:
tScCBS [1] = target: T1, tScCBS (Saccharomyces cerevisiae, UniProt P32582); assay: UV-Vis absorption titration of tScCBS (dissociation constants); assay type: binding; conditions: tScCBS 1 mg/mL, pH 8.5; decrease in absorbance at 412 nm (AOAA), increase at 460 nm (Ser) or 440 nm (Cys); 3 min incubation; read-out: Dissociation constant Kd (UV-Vis absorption)
T1 construct: 6xHis (C); made in house
T1 sequence (P32582 1-345): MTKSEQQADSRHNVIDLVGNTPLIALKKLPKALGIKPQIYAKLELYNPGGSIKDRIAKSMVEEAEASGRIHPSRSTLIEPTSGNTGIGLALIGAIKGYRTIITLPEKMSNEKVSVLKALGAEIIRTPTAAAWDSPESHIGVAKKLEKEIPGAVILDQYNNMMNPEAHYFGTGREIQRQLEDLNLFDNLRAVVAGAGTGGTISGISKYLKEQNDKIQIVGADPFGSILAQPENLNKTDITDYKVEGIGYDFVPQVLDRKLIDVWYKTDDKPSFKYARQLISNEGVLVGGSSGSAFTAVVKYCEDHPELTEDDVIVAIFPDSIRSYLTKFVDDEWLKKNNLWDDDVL
Method: (§1) CBS enzymes. Recombinant truncated Saccharomyces cerevisiae CBS lacking the C-terminal regulatory domain (residues 346–507) and carrying the C-terminal 6xHis tag (tScCBS) was prepared as described previously. Engineered recombinant Homo sapiens CBS lacking a loop protruding from the central β-strand of the CBS2 domain corresponding to the residues 516–525 (HsCBS; described in detail in [21]) was purchased from GenScript.
(§2) UV − Vis and fluorescence spectroscopy. Absorption spectra were collected on a Tecan Infinite M200 Pro spectrophotometer in a buffer containing 50 mM Tris–HCl pH 8.5, 20 mM NaCl and 0.5 mM tris(2-carboxyethyl)phosphine (TCEP). All the spectra were carried out with a protein concentration of 1 mg/mL with a 1 cm path-length quartz cuvette in a total volume of 150 µL. tScCBS was titrated directly in a cuvette by successive additions of different concentrations of AOAA, Ser and Cys, respectively, and spectra were recorded between 240 and 600 nm after an incubation time of 3 min at RT. Fluorescence emission spectra were collected under the same conditions upon PLP excitation at 410 nm. Blank spectra were subtracted from sample spectra.

tScCBS [2] = target: T1, tScCBS; assay: Fluorescence emission titration of tScCBS (PLP excitation at 410 nm); assay type: binding; conditions: tScCBS 1 mg/mL, pH 8.5; decrease in emission at 520 nm, excitation 410 nm; read-out: Dissociation constant Kd (fluorescence)
Method: as §1, §2

tScCBS [3] = target: T1, tScCBS; assay: Kinetics of AOAA binding to tScCBS and displacement by substrate, followed by absorption spectra; conditions: in the presence of Cys, data not shown
Method: as §2
Fig. 2 Spectroscopic rescue of AOAA-inhibited tScCBS by Ser. A Changes in the absorption spectra of tScCBS upon addition of 20 µM AOAA (cyan lines) followed for 1 h. Subsequently, 1 mM Ser (gray lines) was added and spectral changes were followed for additional 1 h. B Representative kinetic fitting of AOAA binding to tScCBS followed at 412 nm. C Representative kinetic fitting of AOAA displacement from tScCBS by Ser by following changes at 370 nm and 460 nm. The kinetic parameters of the observed processes are shown as insets in panels B and C. Far-UV (D) and near-UV (E) CD spectra of tScCBS (black), tScCBS complexed with 20 µM AOAA (cyan) or 1 mM Ser (magenta) and tScCBS complexed with 20 µM AOAA followed by 1 h incubation with 1 mM Ser (green).

tScCBS [4] = target: T1, tScCBS; assay: CBS H2S production assay (AzMC fluorometric), tScCBS; assay type: biochemical; conditions: tScCBS; AzMC assay
Method: (§3) CBS H2S production assay. H2S-producing activity of CBS, utilizing Cys and Hcy, was determined using a fluorometric assay employing the H2S-selective fluorescent probe 7-azido-4-methylcoumarin (AzMC) as described previously. The reaction mixture in a total volume of 200 µL contained 50 mM Tris–HCl pH 8.6, 5 μM PLP, 2 mM Hcy, 10 μM AzMC and 500 ng tScCBS or HsCBS. The plate was incubated for 10 min at 37°C and the enzymatic activity was triggered by adding 0–50 mM Cys. The fluorescence of the mixtures at 450 nm (excited at 365 nm) was followed for 2 h at 37°C. All measurements were performed in triplicates using Tecan Infinite 200 PRO microplate reader. Kinetic data were analyzed using GraphPad Prism software.

HsCBS [5] = target: T2, HsCBS (Homo sapiens, UniProt P35520, DEL516-525); assay: CBS H2S production assay (AzMC fluorometric), HsCBS; assay type: biochemical; conditions: AzMC assay
T2 construct: purchased GenScript
T2 sequence (P35520 with tags, fused parts or gaps DEL516-525): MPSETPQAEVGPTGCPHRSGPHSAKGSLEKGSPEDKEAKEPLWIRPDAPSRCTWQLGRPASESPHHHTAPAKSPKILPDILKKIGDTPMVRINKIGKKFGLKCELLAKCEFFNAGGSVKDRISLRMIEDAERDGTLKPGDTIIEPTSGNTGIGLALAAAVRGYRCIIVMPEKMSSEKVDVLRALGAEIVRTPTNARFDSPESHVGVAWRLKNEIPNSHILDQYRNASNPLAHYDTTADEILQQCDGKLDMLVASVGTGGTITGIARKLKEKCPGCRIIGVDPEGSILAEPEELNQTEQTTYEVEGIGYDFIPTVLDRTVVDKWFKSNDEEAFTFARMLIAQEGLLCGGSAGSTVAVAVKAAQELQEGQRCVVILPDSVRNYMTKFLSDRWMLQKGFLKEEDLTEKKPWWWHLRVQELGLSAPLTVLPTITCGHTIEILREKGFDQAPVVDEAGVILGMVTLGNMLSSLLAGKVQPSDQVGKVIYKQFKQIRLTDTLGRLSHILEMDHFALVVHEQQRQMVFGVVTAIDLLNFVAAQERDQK
Method: as §3

tScCBS [6] = target: T1, tScCBS; assay: CBL-LDH coupled-coupled CBS assay, tScCBS; assay type: biochemical; conditions: tScCBS; CBL-LDH coupled-coupled assay
Method: (§4) CBS coupled-coupled assay. CBS canonical activity utilizing Ser and Hcy was determined using cystathionine beta-lyase (CBL) and lactate-dehydrogenase (LDH) coupled-coupled assay as described previously with a few modifications. Native L-LDH from rabbit muscle was purchased from Sigma (catalog no. L2500) and recombinant CBL was purchased from Creative Enzymes (catalog no. NATE-1146). In a final volume of 150 µL, the reaction mixture contained 50 mM Tris–HCl pH 8.9, 20 µM PLP, 500 µM NADH, 1.3 µM LDH, 0.1 µM CBL, 0–20 mM Ser (or 0–50 mM Cys) and 500 ng of tScCBS or HsCBS. Assays with HsCBS were carried out in the absence or presence of 500 µM CBS allosteric activator S-adenosylmethionine (SAM). The reaction was triggered by the addition of 2 mM Hcy and the oxidation of NADH to NAD^+ was followed by monitoring the decrease in absorbance at 340 nm over time (ε340 = 6220 M^−1.cm^−1). […] All measurements were performed in triplicates using Tecan Infinite 200 PRO microplate reader. Kinetic data were analyzed using GraphPad Prism software.

HsCBS [7] = target: T2, HsCBS; assay: CBL-LDH coupled-coupled CBS assay, HsCBS; assay type: biochemical; conditions: CBL-LDH coupled-coupled assay
Method: as §4

SMILES: N[C@@H](CS)C(=O)O [Cys, cysteine]
- Kd (tScCBS [1]): ~58 µM and 57.3 µM
- Kd (tScCBS [2]): 48.9 ± 14.6 µM
- Displacement of AOAA from the tScCBS active site (tScCBS [3]): did not occur
- Vmax (tScCBS [4]): 317.0 ± 24.1 µmol/h/mg
- kcat (tScCBS [4]): 3.4 ± 0.3 s⁻¹
- Vmax (HsCBS [5]; HsCBS + SAM): 113.3 ± 4.0 µmol/h/mg
- kcat (HsCBS [5]; HsCBS + SAM): 1.93 ± 0.06 s⁻¹
- Vmax (HsCBS [5]; HsCBS – SAM): 30.8 ± 1.9 µmol/h/mg
- kcat (HsCBS [5]; HsCBS – SAM): 0.52 ± 0.04 s⁻¹
- Vmax (tScCBS [6]): 161.5 ± 4.5 µmol/h/mg
- kcat (tScCBS [6]): 1.7 ± 0.1 s⁻¹
- Vmax (HsCBS [7]; HsCBS + SAM): 97.2 ± 7.1 µmol/h/mg
- kcat (HsCBS [7]; HsCBS + SAM): 1.66 ± 0.03 s⁻¹
- Vmax (HsCBS [7]; HsCBS – SAM): 20.1 ± 1.7 µmol/h/mg
- kcat (HsCBS [7]; HsCBS – SAM): 0.34 ± 0.02 s⁻¹
